The values below are quoted from earlier work in article PMC8513935.

The nature of series [1]: log P octanol/water from commercial databases, averaged (the ESI). The conditions noted are these: Octanol (wet), 25 C.
Series [2] is described as follows: experimental, compiled by the authors from the literature (the ESI cites the sources).
Series [3] is described as follows: derived by the authors as gas->solvent minus gas->water (a hypothetical dry solvent; the ESI), not a two-phase measurement.

Each structure is given as a SMILES string.

For `C=C`, the log K of transfer, water to solvent was 1.13 log10 K in series [1]; 1.3 log10 K in series [3] (1,2-Dichloroethane, 25 C); 1.28 log10 K in series [3] (2-Methylpropan-1-ol, 25 C); 1.3 log10 K in series [3] (2-Methylpropan-2-ol, 25 C); 1.5 log10 K in series [3] (Acetone, 25 C); 1.28 log10 K in series [3] (Butan-1-ol, 25 C). In addition, the log K of transfer, water to solvent was 1.26 log10 K in series [3] (Butan-2-ol, 25 C); 1.51 log10 K in series [3] (CCl4, 25 C); 1.39 log10 K in series [3] (Chlorobenzene, 25 C); 1.34 log10 K in series [3] (Cyclohexanone, 25 C); 1.35 log10 K in series [3] (Ethanol, 25 C); 1.25 log10 K in series [3] (Heptan-1-ol, 25 C). Further, the log K of transfer, water to solvent in series [3] (Hexadecane, 25 C) is 1.23 log10 K; in series [3] (Hexan-1-ol, 25 C) it was 1.26 log10 K; in series [3] (Hexane, 25 C) it was 1.41 log10 K; in series [3] (Methanol, 25 C) it was 1.35 log10 K; in series [3] (Octan-1-ol(dry), 25 C), 1.22 log10 K; in series [3] (Pentan-1-ol, 25 C) it was 1.29 log10 K. The log K of transfer, water to solvent in series [3] (Propan-1-ol, 25 C) is 1.32 log10 K; in series [3] (Propan-2-ol, 25 C) it was 1.27 log10 K; in series [3] (Tetrahydrofuran, 25 C) it was 1.54 log10 K. Moreover, the log K of transfer, gas to solvent in series [2] (1,2-Dichloroethane, 25 C) was 0.36 log10 K; in series [2] (2-Methylpropan-1-ol, 25 C), 0.34 log10 K; in series [2] (2-Methylpropan-2-ol, 25 C), 0.36 log10 K; in series [2] (Butan-1-ol, 25 C), 0.34 log10 K; in series [2] (Butan-2-ol, 25 C) it was 0.32 log10 K; in series [2] (CCl4, 25 C), 0.57 log10 K. Moreover, the log K of transfer, gas to solvent was 0.45 log10 K in series [2] (Chlorobenzene, 25 C); 0.401 log10 K in series [2] (Cyclohexanone, 25 C); 0.41 log10 K in series [2] (Ethanol, 25 C); 0.312 log10 K in series [2] (Heptan-1-ol, 25 C); 0.289 log10 K in series [2] (Hexadecane, 25 C); 0.318 log10 K in series [2] (Hexan-1-ol, 25 C). In addition, the log K of transfer, gas to solvent is 0.471 log10 K in series [2] (Hexane, 25 C); 0.41 log10 K in series [2] (Methanol, 25 C); 0.28 log10 K in series [2] (Octan-1-ol, 25 C); 0.35 log10 K in series [2] (Pentan-1-ol, 25 C); 0.38 log10 K in series [2] (Propan-1-ol, 25 C); 0.33 log10 K in series [2] (Propan-2-ol, 25 C). In addition, the log K of transfer, gas to solvent is 0.56 log10 K in series [2] (Propanone, 25 C); 0.6 log10 K in series [2] (Tetrahydrofuran, 25 C); -0.94 log10 K in series [2] (Water, 25 C).

Take `CC(C)CC(C)(C)C`: the log K of transfer, water to solvent in series [1] was 4.8 log10 K; in series [3] (2-Methylpropan-2-ol, 25 C), 4.76 log10 K; in series [3] (Butanone, 25 C), 5.09 log10 K; in series [3] (Decan-1-ol, 25 C), 4.98 log10 K; in series [3] (Hexadecane, 25 C), 5.22 log10 K; in series [3] (Hexan-1-ol, 25 C), 5.1 log10 K. Besides, the log K of transfer, water to solvent in series [3] (Pentan-1-ol, 25 C) is 4.97 log10 K; in series [3] (Propan-1-ol, 25 C) it was 4.81 log10 K; in series [3] (Propan-2-ol, 25 C) it was 4.82 log10 K; in series [3] (Tetrahydrofuran, 25 C) it was 5.53 log10 K. For the same compound, the log K of transfer, gas to solvent in series [2] (2-Methylpropan-2-ol, 25 C) is 2.64 log10 K; in series [2] (Butanone, 25 C), 2.97 log10 K; in series [2] (Decan-1-ol, 25 C), 2.86 log10 K; in series [2] (Hexadecane, 25 C), 3.1 log10 K; in series [2] (Hexan-1-ol, 25 C), 2.98 log10 K; in series [2] (Pentan-1-ol, 25 C), 2.85 log10 K. In addition, the log K of transfer, gas to solvent is 2.69 log10 K in series [2] (Propan-1-ol, 25 C); 2.7 log10 K in series [2] (Propan-2-ol, 25 C); 3.41 log10 K in series [2] (Tetrahydrofuran, 25 C); -2.12 log10 K in series [2] (Water, 25 C).

As to `C/C=C/C`, the log K of transfer, water to solvent was 2.31 log10 K in series [1]; 2.79 log10 K in series [3] (Acetone, 25 C); 2.64 log10 K in series [3] (Hexadecane, 25 C). Also, the log K of transfer, gas to solvent was 1.66 log10 K in series [2] (Hexadecane, 25 C); 1.81 log10 K in series [2] (Propanone, 25 C); -0.98 log10 K in series [2] (Water, 25 C).

Turning to `C1CC1`, the log K of transfer, water to solvent in series [1] is 1.72 log10 K; in series [3] (Butan-1-ol, 25 C), 1.81 log10 K; in series [3] (Hexadecane, 25 C) it was 1.86 log10 K; in series [3] (Hexane, 25 C), 2 log10 K; in series [3] (Perfluoroalkane, 25 C), 1.44 log10 K; in series [3] (Propan-1-ol, 25 C) it was 1.7 log10 K. For the same compound, the log K of transfer, water to solvent in series [3] (Propan-2-ol, 25 C) is 1.71 log10 K. Also, the log K of transfer, gas to solvent in series [2] (Butan-1-ol, 25 C) was 1.26 log10 K; in series [2] (Hexadecane, 25 C), 1.31 log10 K; in series [2] (Hexane, 25 C), 1.45 log10 K; in series [2] (Perfluoroalkane, 25 C), 0.888 log10 K; in series [2] (Propan-1-ol, 25 C), 1.15 log10 K; in series [2] (Propan-2-ol, 25 C) it was 1.16 log10 K. In series [2] (Water, 25 C), the log K of transfer, gas to solvent was -0.55 log10 K.

As to `CCCC(C)=O`, the log K of transfer, water to solvent in series [1] was 0.84 log10 K; in series [3] (Benzene, 25 C), 1.19 log10 K; in series [3] (CCl4, 25 C), 0.94 log10 K; in series [3] (Chlorobenzene, 25 C), 1.29 log10 K; in series [3] (Cyclohexane, 25 C), 0.4 log10 K; in series [3] (Hexadecane, 25 C) it was 0.175 log10 K. For the same compound, the log K of transfer, water to solvent in series [3] (Methanol, 25 C) was 0.999 log10 K; in series [3] (Octan-1-ol(dry), 25 C), 0.61 log10 K; in series [3] (Toluene, 25 C), 1.1 log10 K. For the same compound, the log K of transfer, gas to solvent is 3.77 log10 K in series [2] (Benzene, 25 C); 3.52 log10 K in series [2] (CCl4, 25 C); 3.87 log10 K in series [2] (Chlorobenzene, 25 C); 2.98 log10 K in series [2] (Cyclohexane, 25 C); 2.75 log10 K in series [2] (Hexadecane, 25 C); 3.58 log10 K in series [2] (Methanol, 25 C). The log K of transfer, gas to solvent is 3.19 log10 K in series [2] (Octan-1-ol, 25 C); 3.68 log10 K in series [2] (Toluene, 25 C); 2.58 log10 K in series [2] (Water, 25 C).

Regarding `CCCCCCCCCC`, the log K of transfer, water to solvent in series [1] is 5.88 log10 K; in series [3] (Butanone, 25 C) it was 6.74 log10 K; in series [3] (Ethanol, 25 C), 6.24 log10 K; in series [3] (Hexadecane, 25 C), 7 log10 K; in series [3] (Hexane, 25 C), 7.34 log10 K. The log K of transfer, gas to solvent in series [2] (Butanone, 25 C) was 4.42 log10 K; in series [2] (Ethanol, 25 C), 3.92 log10 K; in series [2] (Hexadecane, 25 C), 4.68 log10 K; in series [2] (Hexane, 25 C) it was 5.02 log10 K; in series [2] (Water, 25 C) it was -2.32 log10 K.
